In brackets after ≈: the same amount, converted by molar mass. Several values for one entry are separate records, joined by “and”; a condition that tells them apart may be missing. Equal entries are not always repeated.
How the values were obtained:
[1] = Solubility test (suspension equilibrated at 37°C, content by HPLC); conditions: for Solubility, FaSSIF: FaSSIF (fasted state simulated intestinal fluid); for Solubility, FaSSIF / Solubility, SGF: 37°C; for Solubility, SGF: SGF (simulated gastric fluid); for 24-hour solubility relative to LOQ: purified water and pH 1 buffer medium
Experimental: 50 mg of each test sample was weighed, and a suspension was prepared using 5.0 mL of purified water, pH 1 buffer, SGF (simulated gastric fluid), FaSSIF (fasted state simulated intestinal fluid), and FeSSIF (fed state simulated intestinal fluid), respectively. After equilibration at 37°C for 1 hour, 2 hours, 4 hours, and 24 hours, filtration was performed to obtain clear solutions. The content of the sample in the saturated solution was measured by HPLC.

[2] = Solid-state stability test (XRPD crystal form, HPLC purity); type: physicochemical; conditions: for crystal form transformation (XRPD): under three conditions: 80°C sealed 1 day, 25°C/60% RH and 40°C/75% RH open 1 month
Experimental: An appropriate amount of each test sample was weighed, and subjected to stability tests under the following conditions: sealed storage at 80°C for 1 day, and open storage at 25°C/60% RH and 40°C/75% RH for 1 month, respectively. Solid samples separated under different conditions were subjected to XRPD to measure crystal form to evaluate physical stability, and HPLC to measure chemical purity to evaluate chemical stability. […]

[3] = Bulk density and tap density test; type: physicochemical; conditions: for Average bulk density / Average tap density: average of three parallel tests; for Average tap density: tapped 200 times; for Bulk density: single tests No. 1-3, approx. 800 mg in 5 mL graduated cylinder; for Tap density: single tests No. 1-3, tapped 200 times
Experimental: Approximately 800 mg of each test sample was taken, and added into a 5 mL graduated cylinder, respectively, and the volume at this point was recorded. The graduated cylinder was lightly tapped against the tabletop 200 times, and the volume at this point was recorded. Three parallel tests were performed.

[4] = Mechanical stability test (grinding, tableting); type: physicochemical; conditions: for crystal form after grinding: manually ground in agate mortar for about 3 minutes; for crystal form after tableting / crystallinity degree after tableting: tableting under a pressure of 200 MPa
Experimental: An appropriate amount of each test sample was taken, placed respectively in an agate mortar, and manually ground for about 3 minutes, then, the crystal form was measured.
An appropriate amount of each test sample was taken, and added respectively into a tablet press. The crystal form was measured after tableting under a pressure of 200 MPa.

[5] = Repose angle test (funnel, cone); type: physicochemical; conditions: for Average repose angle (°): average of three parallel tests; for Repose angle (°): single tests No. 1-3, calculated from cone height and diameter
Experimental: An appropriate amount of each test sample was taken. A funnel was fixed on an iron stand and positioned perpendicularly to the tabletop. The crystal form A and crystal form B samples were added into the funnel, respectively, allowing the sample to freely fall to form a cone. The height and diameter of the cone were measured to calculate the repose angle. Three parallel tests were performed. […]

[6] = Hygroscopicity test (dynamic vapor sorption, DVS); type: physicochemical; conditions: for Hygroscopic weight gain at 25°C/80% RH (%): DVS; for hygroscopicity: class per Chinese Pharmacopoeia 2020 edition definition
Experimental: The dynamic vapor sorption-desorption (DVS) curves of each sample were tested and plotted, respectively, and the experimental results are shown in table 5, wherein, the DVS profile of the crystal form A in Example 2 is shown in figure 7, the DVS profile of the crystal form B in Example 5 is shown in figure 8, and the DVS profile of the crude 20(S)-protopanaxadiol in Example 1 is shown in figure 9.
Regarding the description of hygroscopicity characteristics and the definition of hygroscopic weight gain (Guidelines for Hygroscopicity Test of Drugs, Chinese Pharmacopoeia 2020 Edition): • Deliquescent: Absorbing sufficient moisture to form a liquid • Highly hygroscopic: Hygroscopic weight gain of not less than 15% • Hygroscopic: Hygroscopic weight gain of less than 15% but not less than 2% • Slightly hygroscopic: Hygroscopic weight gain of less than 2% but not less than 0.2% • Non-hygroscopic or almost non-hygroscopic: Hygroscopic weight gain of less than 0.2%.

[7] = Initial (baseline of stability test)

CC(C)=CCC[C@](C)(O)[C@H]1CC[C@]2(C)[C@@H]1[C@H](O)C[C@@H]1[C@@]3(C)CC[C@H](O)C(C)(C)[C@@H]3CC[C@]12C [Crystal form D, 20(S)-protopanaxadiol]
Solubility, FaSSIF ([1]; 1 hour, 60 min): 0.11 mg/mL (≈ 239 µM)
Solubility, FaSSIF ([1]; 2 hours, 120 min): 0.072 mg/mL (≈ 156 µM)
Solubility, FaSSIF ([1]; 4 hours, 240 min): 0.082 mg/mL (≈ 178 µM)
Solubility, FaSSIF ([1]; 24 hours, 1440 min): 0.10 mg/mL (≈ 217 µM)
solubility in SGF, comparison among crystal forms [1]: no significant difference
Solubility, SGF ([1]; 1 hour, 60 min): 0.021 mg/mL (≈ 45.6 µM)
Solubility, SGF ([1]; 2 hours, 120 min): 0.017 mg/mL (≈ 36.9 µM)
Solubility, SGF ([1]; 4 hours, 240 min): 0.016 mg/mL (≈ 34.7 µM)
Solubility, SGF ([1]; 24 hours, 1440 min): 0.014 mg/mL (≈ 30.4 µM)
solubility in FaSSIF, comparison with crystal form B [1]: higher than that of the crystal form B
24-hour solubility relative to LOQ ([1]; 24 hours): lower than LOQ
Crystal form change ([2]; 25°C/60% RH/open/1 month): No
Purity (area%) ([2]; 25°C/60% RH/open/1 month): 93.75 area%
Crystal form change ([2]; 40°C/75% RH/open/1 month): No
Purity (area%) ([2]; 40°C/75% RH/open/1 month): 93.00 area%
Crystal form change ([2]; 80°C/sealed/1 day): No
Purity (area%) ([2]; 80°C/sealed/1 day): 94.04 area%
Purity (area%) [2, 7]: 96.01 area%
chemical purity (HPLC) after storage ([2]; open storage at 25°C/60% RH and 40°C/75% RH for 1 month): slightly decreased
purity (HPLC) after storage ([2]; sealed storage at 80°C for 1 day): slightly decreased
crystal form transformation (XRPD) [2]: did not undergo crystal form transformation
Average bulk density [3]: 0.14 g/mL
Average tap density [3]: 0.21 g/mL
Bulk density [3]: 0.14 g/mL
Tap density [3]: 0.21 g/mL and 0.20 g/mL
crystal form after grinding [4]: transformed into amorphous form
crystal form after tableting [4]: did not undergo crystal form transformation
crystallinity degree after tableting [4]: decreased
Average repose angle (°) [5]: 36.8 °
Repose angle (°) [5]: 36.7 ° and 38.2 ° and 35.5 °
Hygroscopic weight gain at 25°C/80% RH (%) [6]: 0.3863%
Crystal form change after DVS test [6]: Unchanged
hygroscopicity [6]: slight hygroscopicity
solubility at 2 h (physchem; water): 0.13 µg/mL (≈ 0.282 µM)

CC(C)=CCC[C@](C)(O)[C@H]1CC[C@]2(C)[C@@H]1[C@H](O)C[C@@H]1[C@@]3(C)CC[C@H](O)C(C)(C)[C@@H]3CC[C@]12C [Crystal form B, 20(S)-protopanaxadiol]
Solubility, FaSSIF ([1]; 1 hour, 60 min): 0.034 mg/mL (≈ 73.8 µM)
Solubility, FaSSIF ([1]; 2 hours, 120 min): 0.039 mg/mL (≈ 84.6 µM)
Solubility, FaSSIF ([1]; 4 hours, 240 min): 0.042 mg/mL (≈ 91.2 µM)
Solubility, FaSSIF ([1]; 24 hours, 1440 min): 0.042 mg/mL (≈ 91.2 µM)
solubility in SGF, comparison among crystal forms [1]: no significant difference
Solubility, SGF ([1]; 1 hour, 60 min): 0.018 mg/mL (≈ 39.1 µM)
Solubility, SGF ([1]; 2 hours, 120 min): 0.019 mg/mL (≈ 41.2 µM)
Solubility, SGF ([1]; 4 hours, 240 min): 0.018 mg/mL (≈ 39.1 µM)
Solubility, SGF ([1]; 24 hours, 1440 min): 0.016 mg/mL (≈ 34.7 µM)
24-hour solubility relative to LOQ ([1]; 24 hours): lower than LOQ
Crystal form change ([2]; 25°C/60% RH/open/1 month): No
Purity (area%) ([2]; 25°C/60% RH/open/1 month): 97.17 area%
Crystal form change ([2]; 40°C/75% RH/open/1 month): No
Purity (area%) ([2]; 40°C/75% RH/open/1 month): 97.15 area%
Crystal form change ([2]; 80°C/sealed/1 day): No
Purity (area%) ([2]; 80°C/sealed/1 day): 97.18 area%
Purity (area%) [2, 7]: 97.20 area%
chemical purity (HPLC) after storage ([2]; under three conditions): did not show a significant decrease
crystal form transformation (XRPD) [2]: did not undergo crystal form transformation
Average bulk density [3]: 0.21 g/mL
Average tap density [3]: 0.25 g/mL
Bulk density [3]: 0.22 g/mL and 0.21 g/mL
Tap density [3]: 0.25 g/mL and 0.24 g/mL and 0.26 g/mL
crystal form after grinding [4]: transformed into amorphous form
crystal form after tableting [4]: did not undergo crystal form transformation
crystallinity degree after tableting [4]: decreased
Average repose angle (°) [5]: 24.2 °
Repose angle (°) [5]: 25.0 ° and 24.7 ° and 22.8 °
Hygroscopic weight gain at 25°C/80% RH (%) [6]: 0.2227%
Crystal form change after DVS test [6]: Unchanged
hygroscopicity [6]: slight hygroscopicity

CC(C)=CCC[C@](C)(O)[C@H]1CC[C@]2(C)[C@@H]1[C@H](O)C[C@@H]1[C@@]3(C)CC[C@H](O)C(C)(C)[C@@H]3CC[C@]12C [Crystal form A, 20(S)-protopanaxadiol]
Solubility, FaSSIF ([1]; 1 hour, 60 min): 0.070 mg/mL (≈ 152 µM)
Solubility, FaSSIF ([1]; 24 hours, 1440 min): 0.12 mg/mL (≈ 260 µM)
solubility in SGF, comparison among crystal forms [1]: no significant difference
solubility in FaSSIF, comparison with crystal form B [1]: higher than that of the crystal form B
Crystal form change ([2]; 25°C/60% RH/open/1 month): No
Purity (area%) ([2]; 25°C/60% RH/open/1 month): 97.20 area%
Crystal form change ([2]; 40°C/75% RH/open/1 month): No
Purity (area%) ([2]; 40°C/75% RH/open/1 month): 97.18 area%
Crystal form change ([2]; 80°C/sealed/1 day): No
Purity (area%) ([2]; 80°C/sealed/1 day): 97.20 area%
Purity (area%) [2, 7]: 97.21 area%
chemical purity (HPLC) after storage ([2]; under three conditions): did not show a significant decrease
crystal form transformation (XRPD) [2]: did not undergo crystal form transformation
Average bulk density [3]: 0.43 g/mL
Average tap density [3]: 0.52 g/mL
Bulk density [3]: 0.44 g/mL and 0.46 g/mL and 0.40 g/mL
Tap density [3]: 0.48 g/mL and 0.56 g/mL and 0.51 g/mL
crystal form after grinding [4]: transformed into amorphous form
crystal form after tableting [4]: did not undergo crystal form transformation
Average repose angle (°) [5]: 20.5 °
Repose angle (°) [5]: 21.2 ° and 19.0 ° and 21.4 °
Hygroscopic weight gain at 25°C/80% RH (%) [6]: 0.5763%
Crystal form change after DVS test [6]: Unchanged
hygroscopicity [6]: slight hygroscopicity
solubility at 2 h (physchem; fassif): 73 µg/mL (≈ 158 µM)
solubility at 4 h (physchem; fassif): 72 µg/mL (≈ 156 µM)
solubility at 4 h (physchem; ph 1 buffer, pH 1): 0.11 µg/mL (≈ 0.239 µM)
solubility at 24 h (physchem; ph 1 buffer, pH 1): 0.15 µg/mL (≈ 0.326 µM)
solubility at 1 h (physchem; sgf (simulated gastric fluid)): 20 µg/mL (≈ 43.4 µM)
solubility at 2 h (physchem; sgf (simulated gastric fluid)): 21 µg/mL (≈ 45.6 µM)
solubility at 4 h (physchem; sgf (simulated gastric fluid)): 17 µg/mL (≈ 36.9 µM)
solubility at 24 h (physchem; sgf (simulated gastric fluid)): 11 µg/mL (≈ 23.9 µM)
solubility at 24 h (physchem; water): 0.13 µg/mL (≈ 0.282 µM)
solubility at 24 h (physchem; water and ph 1 buffer, pH 1): 0.13 to 0.15 µg/mL (≈ 0.282 to 0.326 µM)

— patent EP4818185A1, “CRYSTAL FORMS OF 20(S)-PROTOPANAXADIOL, PREPARATION METHOD THEREFOR AND USE THEREOF” (Shanghai Baocheng Tailai Technology Co., Ltd., priority 2023, dated 2025)
